Measured values from the supplement of paper PMC10307832.

Key:
Assay in all cases: relative viability (nuclei count vs DMSO), 5 days (fraction); higher = more cells survive
[1] = compound: Cc1sc2c(c1C)C(c1ccc(Cl)cc1)=N[C@@H](CC(=O)OC(C)(C)C)c1nnc(C)n1-2 [JQ1]
Outline: (§1)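 Five library-drug doses, separated by factors of √10, were pinned into 1536-well plates holding lung cancer cell lines after an overnight stay at 37 °C. Cells were fixed, permeabilised and Hoechst-stained in one step after 5 days without medium change, then imaged at 4×. Viability compares treated-well with vehicle-well nuclei, counted in MetaXpress, as a median across plates. Passing plates had control CV below 25% and at least one doubling.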

[2] = compound: O=c1[nH]c2ccccc2n1C1CCN(CCCC(c2ccc(F)cc2)c2ccc(F)cc2)CC1 [Pimozide]
Outline: as §1

[3] = compound: O=C(O)CCCCC(CCSCc1ccccc1)SCc1ccccc1 [CPI-613]
Outline: as §1

[4] = compound: CC(=O)O[C@@]12CO[C@@H]1C[C@H](O)[C@@]1(C)C(=O)[C@H](O)C3=C(C)[C@@H](OC(=O)[C@H](O)[C@@H](NC(=O)OC(C)(C)C)c4ccccc4)C[C@@](O)([C@@H](OC(=O)c4ccccc4)[C@H]21)C3(C)C [Docetaxel]
Outline: as §1

[5] = compound: Nc1ccn([C@@H]2O[C@H](CO)[C@@H](O)[C@@H]2O)c(=O)n1 [Cytarabine]
Outline: as §1

[6] = compound: COc1cc2nccc(Oc3ccc(NC(=O)Nc4cc(C)on4)c(Cl)c3)c2cc1OC [Tivozanib]
Outline: as §1

[7] = compound: Cc1cnc(-c2cnc(NCCNc3ccc(C#N)cn3)nc2-c2ccc(Cl)cc2Cl)[nH]1
Outline: as §1

Row | Cell Line | relative viability ([1]; 0.04 µM) | relative viability ([1]; 0.1265 µM) | relative viability ([1]; 0.4 µM) | relative viability ([1]; 1.265 µM) | relative viability ([1]; 4 µM) | relative viability ([2]; 0.08 µM) | relative viability ([2]; 0.253 µM) | relative viability ([2]; 0.8 µM) | relative viability ([2]; 2.53 µM) | relative viability ([2]; 8 µM) | relative viability ([3]; 5 µM) | relative viability ([3]; 15.81 µM) | relative viability ([3]; 50 µM) | relative viability ([3]; 158.11 µM) | relative viability ([3]; 500 µM) | relative viability ([4]; 0.0002 µM) | relative viability ([4]; 0.000632 µM) | relative viability ([4]; 0.002 µM) | relative viability ([4]; 0.006325 µM) | relative viability ([4]; 0.02 µM) | relative viability ([5]; 0.005 µM) | relative viability ([5]; 0.01581 µM) | relative viability ([5]; 0.05 µM) | relative viability ([5]; 0.1581 µM) | relative viability ([5]; 0.5 µM) | relative viability ([6]; 0.005 µM) | relative viability ([6]; 0.01581 µM) | relative viability ([6]; 0.05 µM) | relative viability ([6]; 0.1581 µM) | relative viability ([6]; 0.5 µM) | relative viability ([7]; 0.08 µM) | relative viability ([7]; 0.253 µM) | relative viability ([7]; 0.8 µM) | relative viability ([7]; 2.53 µM)
1 | NCI-H1993 | 0.919 | 0.994 | 0.922 | 0.663 | 0.709 | 0.822 | 0.824 | 0.816 | 0.969 | 0.912 | 0.84 | 0.932 | 0.967 | 0.717 | 0.439 | 0.778 | 0.964 | 0.806 | 0.597 | 0.5 | 0.941 | 0.916 | 0.764 | 0.655 | 0.519 | 0.945 | 0.867 | 1.13 | 0.589 | 0.762 | 0.951 | 0.789 | 1.03 | 1.07
2 | NCI-H2009 | 0.96 | 0.645 | 0.574 | 0.297 | 0.313 | 0.997 | 0.985 | 1.01 | 0.909 | 0.926 | 0.995 | 0.939 | 0.923 | 0.24 | 0.0296 | 0.955 | 1 | 0.944 | 0.456 | 0.239 | 1.01 | 1.01 | 0.997 | 0.724 | 0.398 | 0.955 | 1 | 1.02 | 0.994 | 0.91 | 1.01 | 0.93 | 1.08 | 0.943
3 | NCI-H2023 | 0.893 | 0.665 | 0.439 | 0.243 | 0.207 | 0.993 | 0.961 | 0.82 | 0.858 | 0.778 | 0.926 | 0.836 | 0.91 | 0.0969 | 0.0098 | 0.846 | 0.547 | 0.147 | 0.12 | 0.0751 | 0.542 | 0.282 | 0.172 | 0.107 | 0.0892 | 0.966 | 0.951 | 0.927 | 0.847 | 0.923 | 1.32 | 0.794 | 1.06 | 0.939
4 | NCI-H2085 | 1.01 | 0.891 | 0.867 | 0.622 | 0.537 | 0.973 | 1.01 | 0.957 | 1.02 | 0.881 | 0.987 | 0.935 | 0.935 | 0.82 | 0.246 | 0.968 | 0.987 | 0.746 | 0.504 | 0.373 | 0.965 | 0.929 | 0.868 | 0.808 | 0.801 | 0.982 | 1 | 1.02 | 0.936 | 0.982 | 1.04 | 0.933 | 0.995 | 1.02
5 | NCI-H2087 | 0.996 | 0.661 | 0.963 | 0.581 | 0.451 | 1.11 | 1.05 | – | 1.05 | 0.773 | 0.971 | 1.09 | 0.954 | 0.307 | 0.0055 | 0.947 | 0.5 | 0.223 | 0.182 | 0.107 | 0.946 | 0.888 | 0.722 | 0.614 | 0.36 | 0.988 | 0.972 | 0.956 | 1.28 | 0.995 | 1.12 | 0.723 | 1.05 | 0.886
6 | NCI-H2126 | 1.01 | 0.928 | 0.858 | 0.697 | 0.648 | 0.978 | 0.948 | 1.02 | 0.966 | 0.986 | 0.98 | 0.991 | 1.05 | 0.563 | 0.592 | 1.02 | 0.886 | 0.624 | 0.369 | 0.227 | 0.887 | 0.9 | 0.716 | 0.714 | 0.618 | 0.968 | 0.961 | 1.04 | 0.713 | 0.98 | 1.03 | 0.927 | 0.952 | 1.04
7 | NCI-H2170 | 1 | 0.778 | 0.908 | 0.711 | 0.503 | 1.05 | 0.94 | 0.956 | 0.945 | 0.947 | 0.939 | 0.903 | 0.998 | 0.802 | 0.301 | 1.01 | 0.999 | 0.828 | 0.271 | 0.201 | 0.822 | 0.741 | 0.688 | 0.463 | 0.402 | 0.928 | 0.923 | 0.956 | – | 1.02 | 1.1 | 0.655 | 0.989 | 0.958
8 | NCI-H2228 | 0.927 | 0.857 | 0.876 | 0.462 | 0.406 | 1.07 | 1.11 | 0.868 | 0.805 | 0.543 | 0.915 | 0.931 | 0.893 | 0.744 | 0.0258 | 0.749 | 0.341 | 0.2 | 0.199 | 0.144 | 0.5 | 0.432 | 0.428 | 0.163 | 0.141 | 0.897 | 0.866 | 0.933 | 0.965 | 0.989 | 1.03 | 0.887 | 1.01 | 0.864
